Test results: patent US20240285571A1, “METHODS OF TREATING BONE INFECTIONS” (MICROBION CORPORATION, priority 2020, published 2024)
Converted amounts (≈) assume the structure as drawn. Read-outs that look alike come from different tables or passages of the source.

Tests used:
Format in all cases: cell-based
Pseudomonas aeruginosa = assay: Broth microdilution MIC (Example 6); conditions: Pseudomonas aeruginosa, read-out: MIC
Protocol: (§1) Test Compounds: The test agents BisEDT (MB-1-B3; Lot No. ED268-1-11-01), MB-2B, and MB-6 were stored at room temperature, in the dark, until assayed.
(§2) For testing daptomycin, calcium was supplemented with […] Ca^2+, resulting in a final concentration of […] Ca^2+ (2, 3).
(§3) MIC Assay Procedure: MIC values were determined using a broth microdilution procedure described by CLSI (2, 3).
(§4) The Biomek 2000 was then used to make 2-fold serial dilutions in the mother plates from column 1 through column 11. The wells of column 12 contained no drug and served as the organism growth control wells for the assay.
(§5) The test panels were prepared on the Biomek FX instrument which transferred 2 μL of drug solution from each well of a mother plate to the corresponding well of each daughter plate in a single step.
(§6) A standardized inoculum of each test organism was prepared per CLSI methods to equal a 0.5 McFarland standard, followed by a dilution of 1:20. The plates were then inoculated with 10 μL of the diluted inoculum using the Biomek 2000 from low to high drug concentration resulting in a final concentration of approximately 5×10^5 CFU/mL.
(§7) Plates were stacked 3-4 high, covered with a lid on the top plate, placed into plastic bags, and incubated at 35° C. for 16 to 20 hr (vancomycin was read for S. aureus after 24 hr incubation time). The MIC was recorded as the lowest concentration of drug that inhibited visible growth of the organism.

Klebsiella pneumoniae = assay: Broth microdilution MIC (Example 6); conditions: Klebsiella pneumoniae, read-out: MIC
Protocol: as §1, §2, §3, §4, §5, §6, §7

Escherichia coli = assay: Broth microdilution MIC (Example 6); conditions: Escherichia coli, read-out: MIC
Protocol: as §1, §2, §3, §4, §5, §6, §7

[1] = test system: relevant ATCC QC organisms; assay: Broth microdilution MIC, QC (Example 6)
Protocol: Test Compounds: The test agents BisEDT (MB-1-B3; Lot No. ED268-1-11-01), MB-2B, and MB-6 were stored at room temperature, in the dark, until assayed. The solvent and diluent for the test agents was DMSO (Sigma; St. Louis, MO; Lot No. SHBB9319V) and the prepared stock concentration was 6,464 μg/mL (101× the final test concentration).
Test compounds were evaluated at a concentration range of 0.06-64 μg/mL. For Gram-negative test isolates, amikacin and ceftazidime (alone and with clavulanate at a fixed concentration of 4 μg/mL) were evaluated over a concentration range of 0.06-64 μg/mL; meropenem and levofloxacin were evaluated over a concentration range of 0.008-8 μg/mL. For the testing of S. aureus, clindamycin, daptomycin, levofloxacin and vancomycin were evaluated at a concentration range of 0.008-8 μg/mL; linezolid was tested from 0.03-32 μg/mL.
Organisms: The test organisms as shown in Tables 11-15 consisted of clinical isolates from the Micromyx (MMX) repository and reference strains from the American Type Culture Collection (ATCC; Manassas, VA), National Collection of Type Cultures (NCTC; Public Health England, Salisbury, UK), the Network on Antimicrobial Resistance in Staphylococcus aureus (NARSA; BEI Resources, Manassas, VA), and the Centers for Disease Control and Prevention (CDC; Atlanta, GA). The test organisms were maintained frozen at −80° C. Prior to testing, the isolates were cultured on Tryptic Soy Agar with 5% sheep blood (BAP; Becton Dickson [BD]/BBL; Sparks, MD; Lot Nos. 9080650 and 9108563) at 35° C. Relevant ATCC quality control (QC) organisms (Table 16) were included during testing in accordance with CLSI guidelines (3). Further details on the genetic characterization of the isolates where available can be found in Table 17.
Media: Cation-adjusted Mueller Hinton broth (CAMHB; BD; Lot No. 8190586) was used as the medium for testing (2, 3). For testing daptomycin, calcium was supplemented with […] Ca^2+, resulting in a final concentration of […] Ca^2+ (2, 3).
MIC Assay Procedure: MIC values were determined using a broth microdilution procedure described by CLSI (2, 3). Automated liquid handlers (Multidrop 384, Labsystems, Helsinki, Finland; Biomek 2000 and Biomek F X, Beckman Coulter, Fullerton CA) were used to conduct serial dilutions and liquid transfers.
To prepare the drug mother plates, which would provide the serial drug dilutions for the replicate daughter plates, the wells of columns 2 through 12 of standard 96-well microdilution plates (Costar 3795) were filled with 150 μl of the appropriate diluent for each row of drug. The test articles and comparator compounds (300 μl at 101× the highest concentration to be tested) were dispensed into the appropriate wells in column 1. The Biomek 2000 was then used to make 2-fold serial dilutions in the mother plates from column 1 through column 11. The wells of column 12 contained no drug and served as the organism growth control wells for the assay.
The daughter plates were loaded with 190 μL per well of RPMI using the Multidrop 384. The test panels were prepared on the Biomek FX instrument which transferred 2 μL of drug solution from each well of a mother plate to the corresponding well of each daughter plate in a single step.
as §6, §7

Acinetobacter baumannii = assay: Broth microdilution MIC (Example 6); conditions: Acinetobacter baumannii
In short: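 CLSI broth microdilution in cation-adjusted Mueller Hinton broth, test agents 0.06-64 μg/mL from DMSO stocks, inoculum approx. 5×10^5 CFU/mL. Incubation 35° C for 16–20 hr; MIC taken as lowest concentration inhibiting visible growth.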

[2] = P. aeruginosa isolate CDC 241, β-lactamase type IMP/OXA
[3] = K. pneumoniae CDC 135, ESBL/VIM
[4] = ATCC35218, E. coli ATCC 35218, ESBL

Compound: C[C@@H](O)[C@H]1C(=O)N2C(C(=O)O)=C(S[C@@H]3CN[C@H](C(=O)N(C)C)C3)[C@H](C)[C@H]12 [Meropenem]
- MIC (Pseudomonas aeruginosa; P. aeruginosa isolate CDC 230, β-lactamase type VIM/OXA): > 8 µg/mL
- MIC (Pseudomonas aeruginosa; P. aeruginosa isolate CDC 231, β-lactamase type KPC/OXA): > 8 µg/mL
- MIC (Pseudomonas aeruginosa; [2]): > 8 µg/mL
- MIC (Pseudomonas aeruginosa; P. aeruginosa isolate CDC 246, β-lactamase type NDM/OXA): > 8 µg/mL
- MIC (Pseudomonas aeruginosa; P. aeruginosa isolate CDC 250, β-lactamase type NDM/OXA): > 8 µg/mL
- MIC (Pseudomonas aeruginosa; P. aeruginosa isolate CDC 356, β-lactamase type KPC): > 8 µg/mL
- MIC (Pseudomonas aeruginosa; P. aeruginosa isolate CDC 439, β-lactamase type IMP): > 8 µg/mL
- MIC (Pseudomonas aeruginosa; P. aeruginosa isolate CDC 444, β-lactamase type VIM): > 8 µg/mL
- MIC (Pseudomonas aeruginosa; P. aeruginosa isolate CDC 457, β-lactamase type VIM): > 8 µg/mL
- MIC (Pseudomonas aeruginosa; P. aeruginosa isolate CDC 516, β-lactamase type KPC/AmpC): > 8 µg/mL
- MIC (Pseudomonas aeruginosa; P. aeruginosa isolate CDC 518, β-lactamase type KPC/AmpC): > 8 µg/mL
- MIC (Klebsiella pneumoniae; ATCCBAA1705, K. pneumoniae ATCC BAA-1705, ESBL/KPC): 8 µg/mL (≈ 20.9 µM)
- MIC (Klebsiella pneumoniae; K. pneumoniae CDC 112, KPC): > 8 µg/mL
- MIC (Klebsiella pneumoniae; K. pneumoniae CDC 113, ESBL/KPC): > 8 µg/mL
- MIC (Klebsiella pneumoniae; K. pneumoniae CDC 115, ESBL/KPC): > 8 µg/mL
- MIC (Klebsiella pneumoniae; K. pneumoniae CDC 120, ESBL/KPC): > 8 µg/mL
- MIC (Klebsiella pneumoniae; K. pneumoniae CDC 126, ESBL/KPC): 4 µg/mL (≈ 10.4 µM)
- MIC (Klebsiella pneumoniae; K. pneumoniae CDC 129, ESBL/KPC): 8 µg/mL (≈ 20.9 µM)
- MIC (Klebsiella pneumoniae; [3]): 1 µg/mL (≈ 2.61 µM)
- MIC (Klebsiella pneumoniae; K. pneumoniae CDC 138, ESBL/NDM): > 8 µg/mL
- MIC (Klebsiella pneumoniae; K. pneumoniae CDC 158, ESBL/NDM/OXA): > 8 µg/mL
- MIC (Klebsiella pneumoniae; K. pneumoniae MMX 9029, ESBL): 0.015 µg/mL (≈ 0.0391 µM)
- MIC (Escherichia coli; [4]): ≤ 0.008 µg/mL
- MIC (Escherichia coli; ATCCBAA2471, E. coli ATCC BAA-2471, NDM): > 8 µg/mL
- MIC (Escherichia coli; E. coli CDC 114, ESBL/KPC): 2 µg/mL (≈ 5.22 µM)
- MIC (Escherichia coli; E. coli CDC 118, ESBL/NDM): 0.06 µg/mL (≈ 0.156 µM)
- MIC (Escherichia coli; E. coli CDC 435, NDM): > 8 µg/mL
- MIC (Escherichia coli; E. coli CDC 451, KPC): 1 µg/mL (≈ 2.61 µM)
- MIC (Escherichia coli; E. coli CDC 503, ESBL/NDM): 8 µg/mL (≈ 20.9 µM)
- MIC (Escherichia coli; E. coli MMX 5745, KPC): 2 µg/mL (≈ 5.22 µM)
- MIC (Escherichia coli; E. coli MMX 5755, ESBL): 0.015 µg/mL (≈ 0.0391 µM)
- MIC (Escherichia coli; E. coli MMX 5756, ESBL): ≤ 0.008 µg/mL
- MIC (Escherichia coli; E. coli MMX 5758, ESBL): ≤ 0.008 µg/mL
- MIC ([1]; Escherichia coli, ATCC25922, E. coli ATCC 25922, read-out: MIC): ≤ 0.008 µg/mL
- MIC ([1]; Escherichia coli, ATCC35218, E. coli ATCC 35218, read-out: MIC): ≤ 0.008 µg/mL
- MIC ([1]; Klebsiella pneumoniae, ATCCBAA1705, K. pneumoniae ATCC BAA-1705, read-out: MIC): 8 µg/mL
- MIC ([1]; Pseudomonas aeruginosa, ATCC27853, P. aeruginosa ATCC 27853, read-out: MIC): 0.25 µg/mL
- MIC (Acinetobacter baumannii; A. baumannii isolate CDC 273, β-lactamase type ESBL/OXA, read-out: MIC): > 8 µg/mL
- MIC (Acinetobacter baumannii; A. baumannii isolate CDC 274, β-lactamase type ESBL/OXA, read-out: MIC): > 8 µg/mL
- MIC (Acinetobacter baumannii; A. baumannii isolate CDC 275, β-lactamase type ESBL/OXA, read-out: MIC): > 8 µg/mL
- MIC (Acinetobacter baumannii; A. baumannii isolate CDC 277, β-lactamase type ESBL/OXA, read-out: MIC): > 8 µg/mL
- MIC (Acinetobacter baumannii; A. baumannii isolate CDC 284, β-lactamase type ESBL/OXA, read-out: MIC): > 8 µg/mL
- MIC (Acinetobacter baumannii; A. baumannii isolate CDC 307, β-lactamase type OXA, read-out: MIC): 8 µg/mL
- MIC (Acinetobacter baumannii; A. baumannii isolate CDC 308, β-lactamase type ESBL/OXA, read-out: MIC): 8 µg/mL
- MIC (Acinetobacter baumannii; A. baumannii isolate CDC 311, β-lactamase type OXA, read-out: MIC): > 8 µg/mL
- MIC (Acinetobacter baumannii; A. baumannii isolate CDC 312, β-lactamase type OXA, read-out: MIC): 4 µg/mL
- MIC (Acinetobacter baumannii; A. baumannii isolate CDC 313, β-lactamase type ESBL/OXA, read-out: MIC): > 8 µg/mL
- MIC (Acinetobacter baumannii; NCTC13304, A. baumannii isolate NCTC 13304, β-lactamase type OXA, read-out: MIC): > 8 µg/mL

Compound: CC(S)C(C)S.[Bi] (stereo not drawn) [MB-6, bismuth-2,3-butanedithiol]
- MIC (Pseudomonas aeruginosa; [2]): 8 µg/mL
- MIC (Klebsiella pneumoniae; [3]): 4 µg/mL
- MIC (Klebsiella pneumoniae; K. pneumoniae MMX 9029, ESBL): 2 µg/mL
- MIC (Escherichia coli; [4]): 1 µg/mL
- MIC (Escherichia coli; E. coli MMX 5755, ESBL): 2 µg/mL
- MIC (Escherichia coli; E. coli MMX 5756, ESBL): 1 µg/mL
- MIC (Acinetobacter baumannii; A. baumannii isolate CDC 273, β-lactamase type ESBL/OXA): 0.5 µg/mL
- MIC (Acinetobacter baumannii; A. baumannii isolate CDC 274, β-lactamase type ESBL/OXA): 0.5 µg/mL
- MIC (Acinetobacter baumannii; A. baumannii isolate CDC 275, β-lactamase type ESBL/OXA): 0.5 µg/mL
- MIC (Acinetobacter baumannii; A. baumannii isolate CDC 277, β-lactamase type ESBL/OXA): 1 µg/mL
- MIC (Acinetobacter baumannii; A. baumannii isolate CDC 284, β-lactamase type ESBL/OXA): 1 µg/mL
- MIC (Acinetobacter baumannii; A. baumannii isolate CDC 307, β-lactamase type OXA): 0.5 µg/mL
- MIC (Acinetobacter baumannii; A. baumannii isolate CDC 308, β-lactamase type ESBL/OXA): 0.5 µg/mL
- MIC (Acinetobacter baumannii; A. baumannii isolate CDC 311, β-lactamase type OXA): 0.5 µg/mL
- MIC (Acinetobacter baumannii; A. baumannii isolate CDC 312, β-lactamase type OXA): 0.5 µg/mL
- MIC (Acinetobacter baumannii; A. baumannii isolate CDC 313, β-lactamase type ESBL/OXA): 0.5 µg/mL
- MIC (Acinetobacter baumannii; NCTC13304, A. baumannii isolate NCTC 13304, β-lactamase type OXA): 0.5 µg/mL

Compound: CCC[C@@H]1C[C@@H](C(=O)N[C@@H]([C@H]2O[C@H](SC)[C@H](O)[C@@H](O)[C@H]2O)[C@H](C)Cl)N(C)C1 [CLI]
- MIC ([1]; S. aureus ATCC 29213): 0.25 µg/mL
